For one data set, the system named is ATF4. Kind of data set: ATF4 immunoblot in cells. The note with it: 20 μM; 0, 2, 5, 7.5 h, FIG. 13. The data set is classed as cell-based, human. How it is done:
(§1) For immunoblots, HeLa cells (80,000 cells/ml) were plated in 12-well plates 24 hours before each experiment. Immediately after the indicated treatments, cells were lysed in 75 μl Laemmli Buffer, boiled at 95° C. for 5 minutes and sonicated. Proteins were separated and analysed as described (Tsaytler et al., Science, 332, 91-94, 2011) with the following antibodies: phospho-elf2α [pS52] and PPP1R15A/GADD34 (10449-1-AP; ProteinTech Group, 1/1000 dilution) and ATF4 (Sc-200 Santa Cruz).
Translation can be inhibited at many levels. To ensure that the R15A and B inhibitors are on-target, we monitor the levels of ATF4 in cells treated with compounds. A R15A/B inhibitor persistently induce eIF2α phosphorylation and eIF2α phosphorylation results in ATF4 translation. We show here that an A/B inhibitor indeed induces ATF4, confirming target engagement in cells.
A general note: A western blot detects proteins with antibodies after separation by electrophoresis.

The next data set concerns PPP1R15A. Kind of data set: Assay 3: expression of PPP1R15A in cells. The data set is classed as cell-based, human. To be noted: late time points after addition, FIG. 2B. How it is done:
as §1
Cells and organisms usually have mechanisms to compensate for deficiencies. The inventors therefore considered whether cells might compensate for PPP1R15B inhibition by inducing PPP1R15A. It has been previously reported that PPP1R15A levels are increased in the liver of PPP1R15B knock-out mice (Harding et al., Proc. Natl. Acad. Sci. U.S.A., 106, 1832-1837, 2009). It is unknown whether this compensatory response is specific to the liver or if it can happen in cells or other tissues. Furthermore, prior to this study, it was unknown whether PPP1R15A induction can be observed upon pharmacological inhibition of PPP1R15B, as they were no selective inhibitors of PPP1R15B prior to this study.

Data set [1] in a line: Toxicity in mice (clinical signs, weight). Type of data set: in vivo. The arrangement: clinical signs: dose or concentration left out as unconfirmed. The note with it: 2 weeks, oral. As for the experimental part: For studying the effect of a compound of Example 1 on weight, C3H/B6 mice were gavaged orally once a day with compounds of Example 1 and mice weight was recorded daily for 2 weeks.
Mice were treated with Example 1 and monitored closely to detect any clinical signs. […] This establishes that PPP1R15B inhibition is not toxic. This was surprising and unanticipated as prior to this study one would have speculated that PPP1R15B inhibitors would be so deleterious that they would have no therapeutic potential.

In another data set the test system is mice. Kind of data set: Side effects of Guanabenz: activity of mice after dosing. To be noted: 10 mg/kg oral gavage. The data set is classed as in vivo. As for the experimental part:
To assess whether of a compound of Example 1 had the side effects of Guanabenz, mice (n>3) were gavaged orally with 10 mg/kg of compound or Guanabenz. Their activity was monitored 30 minutes following dosing.
In humans, the adrenergic agonist activity of Guanabenz has side effects including drowsiness and coma at high doses (A. H. Hall, Ann Intern Med 102; 787-788; 1985). Due to of these side effects, Guanabenz is no longer used in human. It is anticipated that Guanabenz derivatives have the side effects of Guanabenz, associated with alpha-2 adrenergic activity.

The next data set relates to HD-N171-82Q mice. Put plainly: Huntington's disease mouse model, motor performance (rotarod). The data set is classed as in vivo. The note with it: 2 mg/kg oral daily, 4 weeks. How it is done: To assess the efficacy of a compound of Example 1 in ameliorating a disease phenotype, 28-day old transgenic mice or littermate control were orally administered daily with a compound of Example 1 (2 mg/kg) or vehicle for a duration of 4 weeks. Disease progression was evaluated by weighting the mice during the treatment and by assessing their motor performances after 4 weeks of treatment.
Eight weeks old HD-N171-82Q mice and their wild-type littermates were first habituated for 1 min on a static rotor and 1 min at constant speed (4 rpm). Habituation was repeated. The test session consisted of four trials with 15 min intervals in between. For each trial 5 mice were placed on an accelerating rotor (4 to 40 rpm) and the latency to fall was recorded, with a maximum limit for individual animal set at 300 s.
Increasing folding by inhibition of PPP1R15B has the potential to benefit a very broad range of human pathologies. To test this, the inventors looked at Huntington's disease (HD), a proteostasis disease caused by accumulation of a misfolded protein, mutant Huntingtin. […] As HD has no cure to date, the inventors tested whether HD could be prevented by PPP1R15B inhibition.
(The rotarod test checks motor coordination on a turning rod.)

Data set [2] relates to dorsal root ganglia culture (DRG) from PMP22 mutant mice. Kind of data set: Myelination in DRG explants from neuropathic mice. The data set is classed as cell-based. To be noted: 5 nM, 14 days. How it is done: Dorsal root ganglia (DRG) dissected from wild-type or Pmp22Tr-J (PMP22mutant) (Henry et al., Neuropathol. Exp. Neurol., 42, 688-706, 1983) embryo at 13.5 or […] (E13.5) were cultured on collagen coated coverslips in neurobasal media supplemented with 4 g/l glucose, 2 mM L-glutamine, 2% B27 supplement and 50 ng/ml neuronal growth factor (NGF) for 7 days. To differentiate Schwann cells and induce myelination, the cultured DRGs were then maintained in C-media (MEM media supplemented with 4 g/I glucose, 2 mM L-glutamine, 10% FCS, 50 ng/ml NGF). The C-media was replaced every other day with freshly added 50 μg/ml ascorbic acid ±5 nM of compound of Example I and cultured for 14 days for myelination by the Schwann cells. The cultured DRGs were then fixed in 4% paraformaldehyde and immunostained with MBP (Rat Myelin basic protein, 1/250 dilution, ab73498).
CMT is a group of myelin neuropathies caused by mutations in a number of genes. Mutations in the peripheral myelin protein PMP22 are the most common causes of CMT. A mutation in PMP22 (Trembler-J) causes the misfolding of PMP22 and a disease in mice that resembles CMT in human due to defects in myelin in the peripheral nervous system. Explants from PM P22 mutant mice recapitulates the severe hypomyelination observed in the human diseases. […] The compound of Example 1 will also be useful in the treatment of other myelin disorders.

The subject of the next data set is Db/db animals. Kind of data set: Blood glucose in obese db/db mice. The data set is classed as in vivo. To be noted: 1 mg/kg once a day, three weeks. How it is done: For treatment of a metabolic disorder, Db/db animals (n=5 per condition) were treated once a day with 1 mg/kg of compound of Example 1 for three weeks. Blood glucose levels were measured with a blood glucose meter (DSI) between 9 and 10 am. Data are mean+/−S.e.m.
It is known that metabolic diseases such as diabetes, obesity, fatty liver disease, and atherosclerosis are associated with pathological ER stress and it is believed that pharmacological modulators of the UPR may have therapeutic benefit. As there were no PPP1R15B inhibitors available prior to this study it was unclear whether PPP1R15B could be a therapeutic target in metabolic diseases. […] Having shown in one disease model that treatment with a compound of Example 1 is beneficial, it is evident that the compounds of the invention will be beneficial to other mammalian metabolic disorders such as diabetes, obesity, fatty liver disease, and atherosclerosis.

Molecules are shown by their SMILES.

Turning to `[H]/N=C(\N)NN=Cc1cc(Cl)cc(Cl)c1Cl` [Compound 10, (E)-2-(2,3,5-trichlorobenzylidene)hydrazine-1-carboximidamide], the “expression of ATF4 (immunoblot)” value in the data set with ATF4 was “induces expression of ATF4”.

In the case of `[H]/N=C(\N)NN=Cc1cccc(Cl)c1Cl` [Compound 16, (E)-2-(2,3-dichlorobenzylidene)hydrazine-1-carboximidamide], the “expression of PPP1R15A in cells” value with PPP1R15A is “induce PPP1R15A”. Moreover, the clinical signs entry in data set [1] is “undistinguishable from mice treated with placebo”. Moreover, the weight gain result in data set [1] (up to 10 mg/mg once a day) is “gained weight normally”. Further, the “activity of mice 30 minutes following dosing” value in the data set with mice was “as active as untreated mice”. In the data set on HD-N171-82Q mice, the motor performances result is listed as “prevented the motor performances impairment”. The “length of myelin internodes” value in data set [2] is listed as “increased the length of myelin internodes in mutant DRG”. Besides, in the data set with Db/db animals, the blood glucose entry was “reduced the pathological high blood glucose”.

The record behind these values is US11154519B2, “Inhibitors and their uses” (MEDICAL RESEARCH COUNCIL, priority 2015, dated 2021).
